Among the data in patent US8486918B2, “Phenyl oxadiazole derivatives as sphingosine 1-phosphate (S1P) receptor” (Allergan, Inc., priority 2010, dated 2013) are EC50 values, retold here.

This test concerns the target T1, human S1P1 receptor (Homo sapiens, UniProt P21453).
T1 construct: expressed in transfected cells; membranes used
The test can be described thus: GTP γ35S binding assay for S1P1 activity. The test is classed as biochemical. The note with it: membranes of cells stably expressing the S1P1 receptor, test concentrations 0.08 to 5,000 nM. As to the method: Compounds were synthesized and tested for S1P1 activity using the GTP γ^35S binding assay. These compounds may be assessed for their ability to activate or block activation of the human S1P1 receptor in cells stably expressing the S1P1 receptor.
GTP γ^35S binding was measured in the medium containing (mM) HEPES 25, pH 7.4, MgCl2 10, NaCl 100, dithitothreitol 0.5, digitonin 0.003%, 0.2 nM GTP γ^35S, and 5 μg membrane protein in a volume of 150 μl. Test compounds were included in the concentration range from 0.08 to 5,000 nM unless indicated otherwise. Membranes were incubated with 100 μM 5′-adenylylimmidodiphosphate for 30 min, and subsequently with 10 μM GDP for 10 min on ice. Drug solutions and membrane were mixed, and then reactions were initiated by adding GTP γ^35S and continued for 30 min at 25° C. Reaction mixtures were filtered over Whatman GF/B filters under vacuum, and washed three times with 3 mL of ice-cold buffer (HEPES 25, pH7.4, MgCl2 10 and NaCl 100). Filters were dried and mixed with scintillant, and counted for ^35S activity using a β-counter. Agonist-induced GTP γ^35S binding was obtained by subtracting that in the absence of agonist. Binding data were analyzed using a non-linear regression method. In case of antagonist assay, the reaction mixture contained 10 nM S1P in the presence of test antagonist at concentrations ranging from 0.08 to 5000 nM.
(In general: Binding of GTPγS marks nucleotide exchange on a G protein.)

T1 sequence (P21453 whole entry): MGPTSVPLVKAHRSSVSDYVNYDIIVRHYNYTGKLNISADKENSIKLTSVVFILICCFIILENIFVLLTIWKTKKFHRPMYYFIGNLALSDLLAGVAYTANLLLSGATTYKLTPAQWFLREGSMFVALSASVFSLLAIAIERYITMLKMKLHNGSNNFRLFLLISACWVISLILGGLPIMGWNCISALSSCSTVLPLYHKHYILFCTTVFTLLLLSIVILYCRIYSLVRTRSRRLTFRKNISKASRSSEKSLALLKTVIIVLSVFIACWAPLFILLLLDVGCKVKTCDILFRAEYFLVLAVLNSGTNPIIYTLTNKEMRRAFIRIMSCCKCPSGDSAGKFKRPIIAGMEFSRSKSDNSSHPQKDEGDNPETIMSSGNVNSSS

For `CCCc1ccc(OC(c2cccc(Cl)c2)c2nc(-c3ccc(CNCCC(=O)O)cc3)no2)cc1` (centres unmarked) [Compound 6, 3-[(4-{5-[(3-chlorophenyl)(4-propylphenoxy)methyl]-1,2,4-oxadiazol-3-yI}benzyl)amino]propanoic acid], the EC50 was 1600 nM.

On to `O=C(O)CCNCc1ccc(-c2noc(C(Oc3cccc(Cl)c3)c3ccccc3Cl)n2)cc1` (centres unmarked) [Compound 2, 3-[(4-{5-[(3-chlorophenoxy)(2-chlorophenyl)methyl]-1,2,4-oxadiazol-3-yl}benzyl)amino]propanoic acid], for which the EC50 worked out at 2120 nM.

For the compound `Cc1ccc(SC(c2nc(-c3ccc(CNCCC(=O)O)cc3)no2)c2ccccc2Cl)cc1C` (centres unmarked) [Compound 5, 3-{[4-(5-{(2-chlorophenyl)[(3,4-dimethylphenyl)thio]methyl}-1,2,4-oxadiazol-3-yI)benzyl]amino}propanoic acid], it took 146 nM to reach a half-maximal effect (EC50).

`Cc1ccc(SC(c2cccc(Cl)c2)c2nc(-c3cc(C)c(OCC(O)CO)c(C)c3)no2)cc1C` (centres unmarked) [Compound 11, 3-[4-(5-{(3-chlorophenyl)[(3,4-dimethylphenyl)thio]methyl}-1,2,4-oxadiazol-3-yl)-2,6-dimethylphenoxy]propane-1,2-diol] displayed an EC50 of 29.9 nM.

For `CCc1ccc(OC(c2cccc(Cl)c2)c2nc(-c3ccc(CNCCC(=O)O)cc3)no2)cc1` (centres unmarked) [Compound 7, 3-[(4-{5-[(3-chlorophenyl)(4-ethylphenoxy)methyl]-1,2,4-oxadiazol-3-yI}benzyl)amino]propanoic acid], a half-maximal effect (EC50) was put at 1080 nM. This EC50 is about 36-fold higher than that of the compound before.

Take `COc1ccc(OC(c2nc(-c3ccc(CNCCC(=O)O)cc3)no2)c2ccccc2Cl)cc1C` (centres unmarked) [Compound 10, 3-[(4-{5-[(2-chlorophenyl)(4-methoxy-3-methylphenoxy)methyl]-1,2,4-oxadiazol-3-yl}benzyl)amino]propanoic acid]: the EC50 came out at 209 nM.

`CCCc1cccc(OC(c2cccc(Cl)c2)c2nc(-c3ccc(CNCCC(=O)O)cc3)no2)c1` (centres unmarked) [3-[(4-{5-[(3-chlorophenyl)(3-propylphenoxy)methyl]-1,2,4-oxadiazol-3-yl}benzyl)amino]propanoic acid] came in with an EC50 of 2100 nM. This EC50 is about 10-fold higher than that of the compound before.

Compound `Cc1ccc(OC(c2cccc(Cl)c2)c2nc(-c3ccc(CNCCC(=O)O)cc3)no2)cc1` (centres unmarked) [Compound 8, 3-[(4-{5-[(3-chlorophenyl)(4-methylphenoxy)methyl]-1,2,4-oxadiazol-3-yl}benzyl)amino]propanoic acid] registered an EC50 of 420 nM. This EC50 is about 5-fold lower than that of the compound before.

Usually EC50 stands for the concentration at which the effect is half-maximal.
